From ChEMBL document CHEMBL1201862, “PubChem BioAssay data set” (2004)
The source made the active and inactive calls.

Experiments:
[1] = molecular target: Mitochondrial peptide methionine sulfoxide reductase (Bos taurus, UniProt P54149); assay: Absorbance-based biochemical high throughput dose response assay for activators of Methionine sulfoxide reductase A (MsrA).; format: functional
Protein RecA = molecular target: T1, Protein RecA (Mycobacterium tuberculosis, UniProt P9WHJ3); assay: Fluorescence Cell-Free Homogeneous Dose Retest to Identify Inhibitors of RecA-Intein Splicing Activity. [Related pubchem assays (depositor defined):AID2097, AID2223, AID489010, AID492950]; format: functional
T1 sequence (P9WHJ3 whole entry): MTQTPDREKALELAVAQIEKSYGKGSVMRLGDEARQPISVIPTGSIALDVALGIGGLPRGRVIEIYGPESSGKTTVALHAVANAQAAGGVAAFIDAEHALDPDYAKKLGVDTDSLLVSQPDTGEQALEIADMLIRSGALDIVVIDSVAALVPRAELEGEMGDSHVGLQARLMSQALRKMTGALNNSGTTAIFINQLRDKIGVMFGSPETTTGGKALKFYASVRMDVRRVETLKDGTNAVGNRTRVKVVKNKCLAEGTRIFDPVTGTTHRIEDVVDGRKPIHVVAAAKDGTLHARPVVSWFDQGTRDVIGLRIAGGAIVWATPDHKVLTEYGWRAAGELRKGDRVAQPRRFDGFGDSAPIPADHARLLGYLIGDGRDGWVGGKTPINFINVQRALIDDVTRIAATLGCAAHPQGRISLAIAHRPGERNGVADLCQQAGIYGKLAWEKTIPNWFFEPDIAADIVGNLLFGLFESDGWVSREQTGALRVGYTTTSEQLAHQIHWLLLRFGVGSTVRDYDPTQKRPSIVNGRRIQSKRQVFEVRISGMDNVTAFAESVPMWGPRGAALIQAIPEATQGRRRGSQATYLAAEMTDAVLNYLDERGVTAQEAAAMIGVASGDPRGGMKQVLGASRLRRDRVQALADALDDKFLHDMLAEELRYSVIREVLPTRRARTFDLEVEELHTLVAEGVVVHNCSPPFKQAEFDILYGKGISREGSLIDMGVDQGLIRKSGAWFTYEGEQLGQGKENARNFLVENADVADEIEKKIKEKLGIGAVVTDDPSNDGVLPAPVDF

Hexokinase HKDC1 = molecular target: T2, Hexokinase HKDC1 (Homo sapiens, UniProt Q2TB90); assay: inhibition of HKDC1 glucose phosphorylation – biochemical, W721R variant, dose response (AID 504729); format: functional
T2 sequence (Q2TB90 whole entry): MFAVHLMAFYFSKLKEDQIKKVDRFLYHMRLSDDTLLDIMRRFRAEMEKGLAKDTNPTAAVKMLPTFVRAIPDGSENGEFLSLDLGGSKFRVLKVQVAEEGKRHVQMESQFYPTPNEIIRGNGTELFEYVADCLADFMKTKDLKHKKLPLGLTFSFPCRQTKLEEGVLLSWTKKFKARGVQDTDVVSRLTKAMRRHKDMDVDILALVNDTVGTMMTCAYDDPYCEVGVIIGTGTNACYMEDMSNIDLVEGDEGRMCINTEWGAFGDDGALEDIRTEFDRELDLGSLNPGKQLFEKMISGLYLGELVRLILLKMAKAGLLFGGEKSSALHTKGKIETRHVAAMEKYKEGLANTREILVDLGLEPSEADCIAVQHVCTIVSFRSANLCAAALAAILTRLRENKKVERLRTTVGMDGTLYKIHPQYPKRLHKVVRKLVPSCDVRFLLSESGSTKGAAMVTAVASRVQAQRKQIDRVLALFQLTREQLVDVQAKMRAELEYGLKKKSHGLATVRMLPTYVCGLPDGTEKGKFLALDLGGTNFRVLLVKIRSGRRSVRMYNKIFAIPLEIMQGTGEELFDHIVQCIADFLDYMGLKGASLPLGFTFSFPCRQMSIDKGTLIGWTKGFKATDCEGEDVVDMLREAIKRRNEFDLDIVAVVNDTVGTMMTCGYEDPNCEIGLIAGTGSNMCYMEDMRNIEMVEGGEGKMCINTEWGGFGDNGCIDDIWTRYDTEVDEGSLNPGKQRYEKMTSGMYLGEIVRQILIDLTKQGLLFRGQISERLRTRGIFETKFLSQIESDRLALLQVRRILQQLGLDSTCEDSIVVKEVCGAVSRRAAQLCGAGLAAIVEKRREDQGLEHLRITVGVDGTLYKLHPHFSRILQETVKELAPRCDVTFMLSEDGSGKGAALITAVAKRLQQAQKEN

[2] = molecular target: T3, RNA-binding protein pos-1 (Caenorhabditis elegans, UniProt G5EF15); assay: disruptors of C. elegans POS-1 RNA interaction – biochemical, fluorescence polarization, dose response (AID 1964);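 note: purified POS-1 fused to maltose binding protein made in E. coli; potency of compounds blocking POS-1 binding to fluorescent RNA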
T3 sequence (G5EF15 whole entry): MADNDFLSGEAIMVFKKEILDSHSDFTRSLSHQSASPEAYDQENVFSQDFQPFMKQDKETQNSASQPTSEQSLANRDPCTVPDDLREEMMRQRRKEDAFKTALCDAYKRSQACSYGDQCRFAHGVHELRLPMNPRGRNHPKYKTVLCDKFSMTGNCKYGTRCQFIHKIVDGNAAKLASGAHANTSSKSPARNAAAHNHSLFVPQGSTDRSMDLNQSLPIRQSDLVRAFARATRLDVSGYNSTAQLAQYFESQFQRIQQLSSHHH

[3] = molecular target: Receptor-type tyrosine-protein kinase FLT3 (Homo sapiens, UniProt P36888); format: functional;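 note: FLT3 was tested as one member of a kinome-wide kinase panel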
[4] = molecular target: Non-receptor tyrosine-protein kinase TYK2 (Homo sapiens, UniProt P29597); format: functional
[5] = molecular target: Death-associated protein kinase 3 (Homo sapiens, UniProt O43293); format: functional;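 note: measured as one member of a kinome-wide profiling panel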
[6] = molecular target: MAP/microtubule affinity-regulating kinase 3 (Homo sapiens, UniProt P27448); format: functional;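 note: MARK3 affinity measured as one member of a kinome panel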
[7] = molecular target: Fibroblast growth factor receptor 1 (Homo sapiens, UniProt P11362); format: functional
[8] = molecular target: Protein kinase C gamma type (Homo sapiens, UniProt P05129); format: functional
[9] = molecular target: Mitogen-activated protein kinase 12 (Homo sapiens, UniProt P53778); format: functional;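 note: measured as one member of a kinome-wide kinase profiling panel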
Insulin receptor = Insulin receptor (Homo sapiens, UniProt P06213); format: functional;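 note: insulin receptor kinase tested as one member of a kinome-wide kinase panel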
[10] = molecular target: Dual specificity tyrosine-phosphorylation-regulated kinase 1A (Homo sapiens, UniProt Q13627); format: functional;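 note: measured against DYRK1A as one member of a broad kinome profiling panel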
[11] = molecular target: Protein kinase C zeta type (Homo sapiens, UniProt Q05513); format: functional;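 note: measured as one member of a broad kinase profiling panel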
[12] = molecular target: 5'-AMP-activated protein kinase catalytic subunit alpha-1 (Homo sapiens, UniProt Q13131); format: functional
[13] = molecular target: Dual specificity mitogen-activated protein kinase kinase 2 (Homo sapiens, UniProt P36507); assay: Navigating the Kinome. Panel member name: MAP2K2; format: functional
Activated CDC42 kinase 1 = Activated CDC42 kinase 1 (Homo sapiens, UniProt Q07912); assay: Navigating the Kinome. Panel member name: ACK1; format: functional
Activated CDC42 kinase 1, sequence (Q07912 whole entry): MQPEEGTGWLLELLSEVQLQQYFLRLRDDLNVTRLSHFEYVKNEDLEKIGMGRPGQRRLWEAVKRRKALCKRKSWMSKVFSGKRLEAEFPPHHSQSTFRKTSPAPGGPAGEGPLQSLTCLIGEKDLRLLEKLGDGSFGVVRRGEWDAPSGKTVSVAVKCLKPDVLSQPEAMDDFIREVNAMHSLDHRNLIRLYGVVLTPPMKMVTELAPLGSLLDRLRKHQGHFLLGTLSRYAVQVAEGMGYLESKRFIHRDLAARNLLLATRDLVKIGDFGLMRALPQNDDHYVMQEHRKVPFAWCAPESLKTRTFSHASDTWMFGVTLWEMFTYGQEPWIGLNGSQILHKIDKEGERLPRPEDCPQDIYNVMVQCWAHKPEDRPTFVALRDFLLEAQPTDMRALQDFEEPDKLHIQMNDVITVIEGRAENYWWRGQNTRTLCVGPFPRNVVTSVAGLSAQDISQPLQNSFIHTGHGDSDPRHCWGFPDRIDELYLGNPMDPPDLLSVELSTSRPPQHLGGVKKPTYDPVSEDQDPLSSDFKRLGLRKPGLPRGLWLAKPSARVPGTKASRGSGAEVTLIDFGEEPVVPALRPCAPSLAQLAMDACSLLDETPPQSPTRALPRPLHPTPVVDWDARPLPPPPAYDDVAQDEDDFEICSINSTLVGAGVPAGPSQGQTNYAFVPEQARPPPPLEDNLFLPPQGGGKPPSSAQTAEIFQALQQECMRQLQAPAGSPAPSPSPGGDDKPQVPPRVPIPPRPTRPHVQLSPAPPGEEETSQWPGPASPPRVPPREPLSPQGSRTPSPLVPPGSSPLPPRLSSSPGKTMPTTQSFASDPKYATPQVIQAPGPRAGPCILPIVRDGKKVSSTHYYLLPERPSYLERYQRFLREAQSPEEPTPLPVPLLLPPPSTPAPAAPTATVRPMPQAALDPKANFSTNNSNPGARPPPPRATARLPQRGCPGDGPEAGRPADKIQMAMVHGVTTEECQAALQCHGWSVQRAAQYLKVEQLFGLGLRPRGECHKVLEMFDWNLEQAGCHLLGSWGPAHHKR

5'-AMP-activated protein kinase catalytic subunit alpha-1, sequence (Q13131 whole entry): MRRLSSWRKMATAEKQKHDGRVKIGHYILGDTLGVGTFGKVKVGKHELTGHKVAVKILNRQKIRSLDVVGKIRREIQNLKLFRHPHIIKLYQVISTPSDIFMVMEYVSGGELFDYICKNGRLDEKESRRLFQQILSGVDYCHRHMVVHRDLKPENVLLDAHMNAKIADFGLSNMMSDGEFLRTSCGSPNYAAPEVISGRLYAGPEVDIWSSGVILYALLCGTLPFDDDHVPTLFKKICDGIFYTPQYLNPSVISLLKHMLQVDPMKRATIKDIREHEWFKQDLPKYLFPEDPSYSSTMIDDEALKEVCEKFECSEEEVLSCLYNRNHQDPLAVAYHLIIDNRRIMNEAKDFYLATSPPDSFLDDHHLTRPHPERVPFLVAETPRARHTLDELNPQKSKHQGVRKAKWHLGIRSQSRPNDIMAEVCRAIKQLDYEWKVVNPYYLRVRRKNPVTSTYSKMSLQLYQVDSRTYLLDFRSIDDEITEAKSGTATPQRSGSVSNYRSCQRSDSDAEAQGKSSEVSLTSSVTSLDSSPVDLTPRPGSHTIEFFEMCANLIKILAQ
Fibroblast growth factor receptor 1, sequence (P11362 whole entry): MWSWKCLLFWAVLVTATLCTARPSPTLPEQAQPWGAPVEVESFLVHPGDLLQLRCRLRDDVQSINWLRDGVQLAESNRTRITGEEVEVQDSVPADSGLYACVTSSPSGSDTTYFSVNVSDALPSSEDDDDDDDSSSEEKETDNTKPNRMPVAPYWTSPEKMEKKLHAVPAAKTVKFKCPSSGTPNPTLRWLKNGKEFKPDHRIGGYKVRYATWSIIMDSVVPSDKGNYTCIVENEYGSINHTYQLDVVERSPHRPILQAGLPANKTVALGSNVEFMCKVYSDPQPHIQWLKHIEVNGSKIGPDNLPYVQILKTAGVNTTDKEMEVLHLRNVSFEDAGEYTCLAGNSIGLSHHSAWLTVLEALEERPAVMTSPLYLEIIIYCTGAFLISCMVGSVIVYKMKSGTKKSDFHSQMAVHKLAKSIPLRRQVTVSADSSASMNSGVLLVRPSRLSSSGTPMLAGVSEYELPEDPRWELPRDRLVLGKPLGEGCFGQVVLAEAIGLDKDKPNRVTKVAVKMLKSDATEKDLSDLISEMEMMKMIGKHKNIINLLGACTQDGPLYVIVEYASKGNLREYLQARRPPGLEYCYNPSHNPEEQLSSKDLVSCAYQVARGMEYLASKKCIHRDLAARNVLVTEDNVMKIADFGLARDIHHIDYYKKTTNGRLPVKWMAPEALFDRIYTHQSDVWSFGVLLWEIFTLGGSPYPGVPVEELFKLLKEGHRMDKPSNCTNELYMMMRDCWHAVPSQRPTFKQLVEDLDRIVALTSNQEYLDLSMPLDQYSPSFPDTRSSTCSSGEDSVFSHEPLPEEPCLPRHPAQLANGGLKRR
Death-associated protein kinase 3, sequence (O43293 whole entry): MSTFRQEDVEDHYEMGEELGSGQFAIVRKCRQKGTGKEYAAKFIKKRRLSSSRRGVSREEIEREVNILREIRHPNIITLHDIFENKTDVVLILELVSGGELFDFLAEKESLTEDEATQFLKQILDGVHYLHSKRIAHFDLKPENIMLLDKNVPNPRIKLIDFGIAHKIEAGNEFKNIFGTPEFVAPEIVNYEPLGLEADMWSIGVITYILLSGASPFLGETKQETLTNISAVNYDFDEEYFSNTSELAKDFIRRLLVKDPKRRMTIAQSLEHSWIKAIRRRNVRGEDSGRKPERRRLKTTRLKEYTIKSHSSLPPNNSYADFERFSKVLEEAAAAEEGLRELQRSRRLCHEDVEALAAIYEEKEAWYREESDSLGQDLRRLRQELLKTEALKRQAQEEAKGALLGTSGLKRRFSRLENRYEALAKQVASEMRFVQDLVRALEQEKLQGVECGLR
Receptor-type tyrosine-protein kinase FLT3, sequence (P36888 whole entry): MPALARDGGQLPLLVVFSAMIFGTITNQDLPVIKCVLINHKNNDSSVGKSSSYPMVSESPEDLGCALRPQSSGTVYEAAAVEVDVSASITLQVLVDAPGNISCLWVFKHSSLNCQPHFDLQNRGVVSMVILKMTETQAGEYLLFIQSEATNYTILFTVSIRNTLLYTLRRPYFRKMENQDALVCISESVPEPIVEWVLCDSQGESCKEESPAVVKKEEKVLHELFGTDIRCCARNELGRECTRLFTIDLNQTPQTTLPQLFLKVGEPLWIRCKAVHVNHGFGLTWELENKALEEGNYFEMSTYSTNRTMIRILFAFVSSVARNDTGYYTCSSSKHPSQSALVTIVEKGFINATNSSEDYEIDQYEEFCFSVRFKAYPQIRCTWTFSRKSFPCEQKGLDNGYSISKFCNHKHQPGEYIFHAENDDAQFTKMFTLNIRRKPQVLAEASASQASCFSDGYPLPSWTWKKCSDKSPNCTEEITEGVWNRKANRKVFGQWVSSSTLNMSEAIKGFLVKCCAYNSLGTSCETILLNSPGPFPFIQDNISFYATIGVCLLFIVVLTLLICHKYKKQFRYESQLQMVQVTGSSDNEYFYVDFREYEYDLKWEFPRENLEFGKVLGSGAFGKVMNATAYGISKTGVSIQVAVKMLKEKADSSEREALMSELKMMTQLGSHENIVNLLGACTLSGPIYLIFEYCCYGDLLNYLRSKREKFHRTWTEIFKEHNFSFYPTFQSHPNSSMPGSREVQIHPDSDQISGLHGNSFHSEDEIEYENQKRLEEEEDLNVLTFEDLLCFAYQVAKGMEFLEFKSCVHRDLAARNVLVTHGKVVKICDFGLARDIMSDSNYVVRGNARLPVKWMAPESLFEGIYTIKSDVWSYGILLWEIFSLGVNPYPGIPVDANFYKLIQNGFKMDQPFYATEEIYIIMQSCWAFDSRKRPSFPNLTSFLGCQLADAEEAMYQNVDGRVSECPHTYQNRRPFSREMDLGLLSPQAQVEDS
Mitochondrial peptide methionine sulfoxide reductase, sequence (P54149 whole entry): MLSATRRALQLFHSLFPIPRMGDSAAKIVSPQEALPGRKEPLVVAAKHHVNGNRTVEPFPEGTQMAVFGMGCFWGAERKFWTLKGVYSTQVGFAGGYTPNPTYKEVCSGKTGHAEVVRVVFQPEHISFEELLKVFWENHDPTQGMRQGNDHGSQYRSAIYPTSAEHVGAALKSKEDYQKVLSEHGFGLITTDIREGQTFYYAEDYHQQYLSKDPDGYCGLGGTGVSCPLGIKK
Protein kinase C zeta type, sequence (Q05513 whole entry): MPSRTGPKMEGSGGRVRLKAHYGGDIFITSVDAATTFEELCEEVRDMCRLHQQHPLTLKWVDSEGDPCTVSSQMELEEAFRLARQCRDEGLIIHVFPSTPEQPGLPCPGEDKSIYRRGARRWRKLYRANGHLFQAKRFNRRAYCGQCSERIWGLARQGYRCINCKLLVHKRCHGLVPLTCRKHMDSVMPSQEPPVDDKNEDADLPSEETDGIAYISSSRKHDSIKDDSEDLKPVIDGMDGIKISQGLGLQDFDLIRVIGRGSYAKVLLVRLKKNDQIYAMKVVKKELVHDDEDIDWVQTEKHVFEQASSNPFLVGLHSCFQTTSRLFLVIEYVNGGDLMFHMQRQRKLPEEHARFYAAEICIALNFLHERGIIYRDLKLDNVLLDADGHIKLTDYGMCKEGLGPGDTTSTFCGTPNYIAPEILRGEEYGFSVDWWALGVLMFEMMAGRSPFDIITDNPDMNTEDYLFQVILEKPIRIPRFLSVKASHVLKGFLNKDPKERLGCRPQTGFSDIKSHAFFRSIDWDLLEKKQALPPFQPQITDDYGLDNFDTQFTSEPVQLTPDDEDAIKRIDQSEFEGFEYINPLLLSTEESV

O=C1C=C(NCc2ccccc2)c2ccccc2C1=O
EC50 [1]: 63.3 µM (inactive) | EC50 (Protein RecA): 0.774 µM (active) | IC50 (Hexokinase HKDC1): 2.5 µM (active)

O=C(O)c1[nH]c2ccccc2c1C(c1cc(Cl)cc([N+](=O)[O-])c1O)c1c(C(=O)O)[nH]c2ccccc12
EC50 [2]: 14.9 µM (active)

CCOC(=O)c1cn(-c2ccc(O)cc2C)c2cc(-c3ccncc3)ccc2c1=O
Ki [3]: > 2.51 µM (inactive) | Ki [4]: > 2 µM (inactive) | Ki [5]: > 1.26 µM (inactive) | Ki [6]: > 6.31 µM (inactive) | Ki [7]: > 5.01 µM (inactive) | Ki [8]: > 7.94 µM (inactive) | Ki [9]: > 6.31 µM (inactive) | Ki (Insulin receptor): > 5.01 µM (inactive) | Ki [10]: > 6.31 µM (inactive) | Ki [11]: > 7.94 µM (inactive) | Ki [12]: > 10 µM (inactive)

Cc1cc(=O)[nH]nc1-c1ccc(NC(=O)Nc2cc(C(F)(F)F)ccc2F)c(Cl)c1
Ki [3]: > 3.16 µM (inactive) | Ki [5]: > 5.01 µM (inactive) | Ki [7]: > 3.98 µM (inactive) | Ki [13]: > 3.98 µM (inactive) | Ki (Activated CDC42 kinase 1): > 3.98 µM (inactive) | Ki [10]: > 2 µM (inactive) | Ki [12]: > 3.16 µM (inactive)
